test system: hIL-6 mRNA; experiment: Quantification of hIL-6 mRNA in LPS-stimulated U937 macrophages (real-time PCR); assay type: cell-based, human; design: key: Active: an active compound is one that causes a ≧20% inhibition in IL-6 mRNA at a concentration less than or equal to 10 μM; conditions: U937 cells differentiated with PMA, 1 h pretreatment, LPS 1 μg/mL, 3 h; IL-6 mRNA normalised to hCyclophilin; compound ≤10 μM
Experimental: In this example, hIL-6 mRNA in tissue culture cells was quantitated to measure the transcriptional inhibition of hIL-6 when treated with a compound of the invention.
A human leukemic monocytic lymphoma cell line (U937) was plated (3.2×10^5 cells per well) in a 96-well plate in 100 μL RPMI 1640+10% FBS, and differentiated into macrophages with PMA (60 ng/mL) for 3 days prior to the addition of the compound of interest. The cells were pretreated for 1 h with the test compound in DMSO prior to stimulation with lipopolysaccharide from Escherichia coli at 1 μg/mL. The cells were incubated for 3 h before harvest. At the time of harvest, cells were rinsed in 200 μL PBS. Cell lysis solution (70 μL) was added the cells for 10 min, and mRNA was then prepared using the “mRNA Catcher PLUS plate” (Invitrogen), according to the protocol supplied.
The eluted mRNA isolated was then used in a one-step quantitative real-time PCR reaction, using components of the UltraSense kit together with Applied Biosystems primer-probe mixes. 10 μL of template was amplified with 1.75 μL of IL-6 primer-probe, and 1 μL of hCyclophilin primer probe, and the reaction was carried out in multiplex. Real-time PCR data was analyzed, normalizing the Ct values for hIL-6 to hCyclophilin, prior to determining the fold induction of each unknown sample, relative to the control.

Row | SMILES | Inhibition of IL-6 expression
1 | COc1cc(OCCN(C)C)c2c(=O)[nH]c(-c3cc(C)c(O)c(C)c3)nc2c1 [Example 1, 5-(2-dimethylamino-ethoxy)-2(4-hydroxy-3,5-dimethylphenyl)-7-methoxy-3H-quinazolin-4-one] | Active
2 | COCCOc1cc(OC)cc2nc(-c3cc(C)c(O)c(C)c3)[nH]c(=O)c12 [Example 2, 2-(4-hydroxy-3,5-dimethyl-phenyl)-7-methoxy-5-(2-methoxy-ethoxy)-3H-quinazolin-4-one] | Active
3 | COc1cc(OCCN)cc2nc(-c3cc(C)c(O)c(C)c3)[nH]c(=O)c12 [Example 3, 7-(2-amino-ethoxy)-2-(4-hydroxy-3,5-dimethyl-phenyl)-5-methoxy-3H-quinazolin-4-one] | Active
4 | COCCOc1cc(OC)c2c(=O)[nH]c(-c3cc(C)c(O)c(C)c3)nc2c1 [Example 4, 2-(4-hydroxy-3,5-dimethyl-phenyl)-5-methoxy-7-(2-methoxy-ethoxy)-3H-quinazolin-4-one] | Active
5 | COc1cc(OCCOCc2cccnc2)cc2nc(-c3cc(C)c(O)c(C)c3)[nH]c(=O)c12 [Example 6, 2-(4-hydroxy-3,5-dimethylphenyl)-5-methoxy-7-[2-(pyridin-3-ylmethoxy)ethoxy]-3H-quinazolin-4-one] | Active
6 | Cc1cc(-c2nc3ccc(Nc4ccncc4)cc3c(=O)[nH]2)cc(C)c1O [Example 8, 2-(4-hydroxy-3,5-dimethyl-phenyl)-6-(pyridin-4-ylamino)-3H-quinazolin-4-one] | Active
7 | Cc1cc(-c2nc3ccc(CNS(C)(=O)=O)cc3c(=O)[nH]2)cc(C)c1O [Example 11, N-((2-(4-hydroxy-3,5-dimethylphenyl)-4-oxo-3,4-dihydroquinazolin-6-yl)methyl)methanesulfonamide] | Active
8 | Cc1cc(-c2nc3ccc(N4CCOCC4)cc3c(=O)[nH]2)cc(C)c1OCCO [Example 12, 2-(4-(2-hydroxyethoxy)-3,5-dimethylphenyl)-6-morpholinoquinazolin-4(3H)-one] | Active
9 | COc1cc(OC)c2c(=O)[nH]c(-c3cc(C)c(OCCOCc4ccccc4)c(C)c3)nc2n1 [Example 13, 2-(4-(2-(benzyloxy)ethoxy)-3,5-dimethylphenyl)-5,7-dimethoxypyrido[2,3-d]pyrimidin-4(3H)-one] | Active
10 | Cc1cc(C)c2c(=O)[nH]c(-c3cc(C)c(OCCO)c(C)c3)nc2n1 [Example 14, 2-(4-(2-hydroxyethoxy)-3,5-dimethylphenyl)-5,7-dimethylpyrido[2,3-d]pyrimidin-4(3H)-one] | Active
11 | Cc1cc(-c2nc3cc(OC(C)C)cc(OC(C)C)c3c(=O)[nH]2)cc(C)c1OCCO [Example 16, 2-[4-(2-hydroxy-ethoxy)-3,5-dimethyl-phenyl]-5,7-diisopropoxy-3H-quinazolin-4-one] | Active
12 | COc1cc2nc(-c3cc(C)c(OCCO)c(C)c3)[nH]c(=O)c2c(OC)c1CN1CCOCC1.Cl [Example 19, 2-[4-(2-hydroxy-ethoxy)-3,5-dimethylphenyl]-5,7-dimethoxy-6-morpholin-4-ylmethyl-3H-quinazolin-4-one hydrochloride] | Active
13 | COc1cc(OCCOCc2ccccc2)cc2nc(-c3ccc4oc(CO)cc4c3)[nH]c(=O)c12 [Example 24, 7-(2-benzyloxy-ethoxy)-2-(2-hydroxymethyl-benzofuran-5-yl)-5-methoxy-3H-quinazolin-4-one] | Active
14 | COc1cc(OC)c2c(=O)[nH]c(-c3cc(C)c(OCC(=O)NCc4ccccc4)c(C)c3)nc2c1 [Example 27, N-benzyl-2-[4-(5,7-dimethoxy-4-oxo-3,4-dihydroquinazolin-2-yl)-2,6-dimethylphenoxy]acetamide] | Active
15 | COc1cc(OC)c2c(=O)[nH]c(-c3cc(C)c(OCCNC=O)c(C)c3)cc2c1 [Example 41, N-{2-[4-(6,8-dimethoxy-1-oxo-1,2-dihydro-isoquinolin-3-yl)-2,6-dimethyl-phenoxy]-ethyl}-formamide] | Active
16 | COc1cc(OC)c2c(=O)[nH]c(-c3cc(C)c(OCCNS(=O)(=O)C(C)C)c(C)c3)nc2c1 [Example 43, N-(2-(4-(5,7-dimethoxy-4-oxo-3,4-dihydroquinazolin-2-yl)-2,6-dimethylphenoxy)ethyl)propane-2-sulfonamide] | Active
17 | COc1cc(OC)c2c(=O)[nH]c(-c3ccc(OCCNC(C)=O)c(C)c3)nc2c1 [Example 45, N-(2-(4-(5,7-dimethoxy-4-oxo-3,4-dihydroquinazolin-2-yl)-2-methylphenoxy)ethyl)acetamide] | Active
18 | COc1cc(OC)c2c(=O)[nH]c(-c3cc(C)c(OCCN(C)C)c(C)c3)nc2c1 [Example 46, 2-(4-(2-(dimethylamino)ethoxy)-3,5-dimethylphenyl)-5,7-dimethoxyquinazolin-4(3H)-one] | Active
19 | COc1cc(OC)c2c(=O)[nH]c(-c3cc(C)c(OCCNC=O)c(C)c3)nc2c1 [Example 48, N-(2-(4-(5,7-dimethoxy-4-oxo-3,4-dihydroquinazolin-2-yl)-2,6-dimethylphenoxy)ethyl)formamide] | Active
20 | COc1cc(OC)c2c(=O)[nH]c(-c3cc(C)c(OCCN(C)C=O)c(C)c3)nc2c1 [Example 49, N-(2-(4-(5,7-dimethoxy-4-oxo-3,4-dihydroquinazolin-2-yl)-2,6-dimethylphenoxy)ethyl)-N-methylformamide] | Active
21 | COc1cc(OC)c2c(=O)[nH]c(-c3cc(C)c(OCCNS(=O)(=O)N(C)C)c(C)c3)nc2c1 [Example 50, N-(2-(4-(5,7-dimethoxy-4-oxo-3,4-dihydroquinazolin-2-yl)-2,6-dimethylphenoxy)ethyl)dimethylamino-N-sulfonamide] | Active
22 | COc1cc(OC)c2c(=O)[nH]c(-c3cc(C)c(OCCNc4cc(C)on4)c(C)c3)nc2c1 [Example 52, 2-(3,5-dimethyl-4-(2-(5-methylisoxazol-3-ylamino)ethoxy)phenyl)-5,7-dimethoxyquinazolin-4(3H)-one] | Active
23 | COc1cc(OC)c2c(=O)[nH]c(-c3cc(C)c(OCCNc4ncccn4)c(C)c3)nc2c1 [Example 53, 2-(3,5-dimethyl-4-(2-(pyrimidin-2-ylamino)ethoxy)phenyl)-5,7-dimethoxyquinazolin-4(3H)-one] | Active
24 | COc1cc(OC)c2c(=O)[nH]c(-c3cc(C)c(OCCNc4ccon4)c(C)c3)nc2c1 [Example 54, 2-(4-(2-(isoxazol-3-ylamino)ethoxy)-3,5-dimethylphenyl)-5,7-dimethoxyquinazolin-4(3H)-one] | Active
25 | COc1cc(OC)c2c(=O)[nH]c(-c3cc(C)c(OCCNc4nc(OC)cc(OC)n4)c(C)c3)nc2c1 [Example 55, 2-(4-(2-(4,6-dimethoxypyrimidin-2-ylamino)ethoxy)-3,5-dimethylphenyl)-5,7-dimethoxyquinazolin-4(3H)-one] | Active
26 | COc1cc(OC)c2c(=O)[nH]c(-c3cc(OC)c(CCCO)c(OC)c3)nc2c1 [Example 56, 2-[4-(3-hydroxy-propyl)-3,5-dimethoxyphenyl]-5,7-dimethoxy-3H-quinazolin-4-one] | Active
27 | COc1cc(OC)c2c(=O)[nH]c(-c3ccc(CCCO)c(OC)c3)nc2c1 [Example 57, 2-[4-(3-hydroxy-propyl)-3-methoxy-phenyl]-5,7-dimethoxy-3H-quinazolin-4-one] | Active

test system: hVCAM-1 mRNA; experiment: Quantification of hVCAM-1 mRNA in TNF-α-stimulated HUV-EC-C cells (real-time PCR); assay type: cell-based, human; design: key: Active: an active compound is one that causes a ≧20% inhibition in VCAM-1 mRNA at a concentration less than or equal to 10 μM; conditions: 1 h pretreatment, TNF-α 10 ng/mL, 24 h, VCAM-1 mRNA normalised to hCyclophilin, compound ≤10 μM
Experimental: In this example, hVCAM-1 mRNA in tissue culture cells was quantitated to measure the transcriptional inhibition of hVCAM when treated with a compound of the invention.
A human umbilical vein endothelial cell line (HUV-EC-C) was plated in a 96-well plate (5.0×10^3 cells/well) in 100 μL EGM complete media and incubated for 24 h prior to the addition of the compound of interest. The cells were pretreated for 1 h with the test compound in DMSO prior to stimulation with tumor necrosis factor-α (10 ng/mL). The cells were incubated for an additional 24 h before harvest. At time of harvest, the cells were rinsed in 200 μL PBS, and cell lysis solution (70 μL) was then added the cells for 10 min. mRNA was then prepared using the “mRNA Catcher PLUS plate” (Invitrogen), according to the protocol supplied.
The eluted mRNA was then used in a one-step quantitative real-time PCR reaction, using components of the UltraSense kit together with Applied Biosystems primer-probe mixes. 10 μL of template was amplified with 1.75 μL of hVCAM-1 primer-probe, and 1 μL of hCyclophilin primer probe, and the reaction was carried out in multiplex. Real-time PCR data was analyzed, normalizing the Ct values for hVCAM-1 to hCyclophilin, prior to determining the fold induction of each unknown sample, relative to the control.

Row | SMILES | Inhibition of VCAM-1 expression
28 | COc1cc(OCCN)cc2nc(-c3cc(C)c(O)c(C)c3)[nH]c(=O)c12 [Example 3, 7-(2-amino-ethoxy)-2-(4-hydroxy-3,5-dimethyl-phenyl)-5-methoxy-3H-quinazolin-4-one] | Active
29 | COCCOc1cc(OC)c2c(=O)[nH]c(-c3cc(C)c(O)c(C)c3)nc2c1 [Example 4, 2-(4-hydroxy-3,5-dimethyl-phenyl)-5-methoxy-7-(2-methoxy-ethoxy)-3H-quinazolin-4-one] | Active

— patent US9757368B2, “Anti-inflammatory agents” (Resverlogix Corp., priority 2009, dated 2017)
